From patent US11841361B2, “Microfluidic proximal tubule kidney-on-chip” (EMULATE, INC., priority 2019, dated 2023)

Legend:
[1] = Material absorption into Kidney-Chip and perfusion manifold materials; format: physicochemical; conditions: REGM serum-free medium; 1-72 hr; glass control
From the text: In some embodiments, Material Absorption is one exemplary readout. When testing compounds added to a PT Kidney Chip, a determination of material absorption is made for that compound. The following is a exemplary method for determining material adsorption of a compound.
Study Conditions. Study approach: Each experiment includes a number of controls and test conditions. These allow us to tease out: Adsorption to the vial/well-plate. Absorption vs. adsorption to the tested material.
• 1. Dissolve the small molecule in an aqueous phase (medium) and incubate it with the tested material. • 2. Measure the concentration of small molecule remaining in the aqueous phase (using mass spec, plate reader). • 3. Curve-fit the measured data to quantify the absorption and diffusion parameters.

[2] = Creatinine and PAH secretion/transport in PT Kidney-Chip; format: in vitro ADME, human; conditions: human, Proximal Tubule Kidney-Chip; read-out: recovery of compound in the chip
Protocol: (§1) To measure creatinine secretion in the Proximal Tubule Kidney-Chip, the vascular compartment is perfused with medium containing 1 mg/dL of human creatinine, while the secretion of creatinine in the top channel is measured from chip effluent. Exemplary assay flow rate (Proximal Tubule Kidney-Chip) during this assays is 60 μL/hour. In some embodiments, samples of effluent are collected in outlet reservoirs of the module. In preferred embodiments, there is no dilution of effluent when using an exemplary commercial kit, e.g. Invitrogen™ Creatine Urinary Detection Kit (Thermo Fisher EIACUN as described at thermofisher.com, downloaded Jun. 20, 2019).
(§2) In some embodiments, creatinine transport is determined in relation to chip configuration and low vs. high flow. Creatinine Secretion: Creatinine Loss (BI-BO); Creatinine filtration (TO/BO); Apical Creatinine (TO).
(§3) After activation, S1 (tall channel) chips and high shear chips are coated with Emulate ECM (i.e. Col IV+ Matrigel) on the side of the membrane (typically the top channel) intended for seeding with PT Kidney Cells. For monocultures, proximal tubular cells are seeded into the channel with the ECM coated membrane. For co-culturing PT Kidney Cells (system), glomerular microvascular endothelial cells are seeded on bottom channel and incubated for overnight. The following day, proximal tubular cells are seeded into the top channel (where the membrane is coated with ECM) and cultured for 2 days under static conditions, i.e. no fluid flow. Chips will be connected to a culture module at day 3 along with starting flow at 150 ul/h for both channels. Media should be replenished daily. At day 7, PAH and Creatinine will be dosed Apically under a 150 ul/h flow rate then A to B transport will be measured. Initial collection (after 2 hours) will be discard and during the following 22 hours effluent fluid (media) will be collected at desired times for measurements. At day 8, PAH and Creatinine will then be dosed Basally at 150 ul/h flow rate and B to A transport will be measured. Initial collection during 2 hours will be discarded and over the following 22 hours, the media will be collected for measurement. At day 9, the chip will be return to culture mode and cultured for additional […]. At day 14 PAH and Creatinine will be dosed Apically at 150 ul/h flow rate and A to B transport will be measured. Initial collection (2 hours) will be discard and during the following 22 hours the media will be collected for measurement. At day 15, PAH and Creatinine will be dosed Basally at 150 ul/h flow rate and B to A transport will be measured. Initial collection during 2 hours will be discarded and the following 22 hours, the media will be collected for measurement.

[3] = test system: Proximal Tubule Kidney-Chip; experiment: as above; format: in vitro ADME, human; conditions: for mass balance: compound loss (inlet/outlet) in chip system / active transport (B-A versus A-B transport): S1 and HS chips; for active transport (B-A versus A-B transport): Day 8 and Day 15
Protocol: as §1, §2, §3

PT Kidney-Chip = experiment: Barrier function: inulin leakage in PT Kidney-Chip; format: in vitro ADME, human; conditions: inulin added to apical channel
[4] = test system: Transwell kidney cell cultures; experiment: Efflux ratio of probe substrates in Transwell cultures; conditions: no inhibitor
[5] = test system: Proximal Tubule Kidney-Chip; experiment: Efflux ratio / permeability of probe substrates in Proximal Tubule Kidney-Chip
Protocol: (§4) Additional transporter Tier 1 test substrates/substances include but are not limited to: 1. […] TEA; 4. PAH; 5. Estrone-3-sulfate (E3S); 6. Glycylsarcosine. In some embodiments, microfluidic devices are treated with a substance followed by a 30 minute flushing cycle. In some embodiments, microfluidic devices under go 100 ul/hr of flow during transported function measurements.
(§5) Permeability from the vascular (V) to luminal (L) direction (Papp(V−L)) and permeability from the luminal to vascular direction (Papp(L−V)) were determined along with calculating the efflux ratio (Papp(V−L)/PapP(L−V)). […] However, the values were included in the calculations to calculate the efflux ratio.

[6] = Prediction of clearance versus clinical values; conditions: proximal tubule Kidney chip
in vitro = conditions: human
Protocol: as §4, §5

[7] = test system: P-gp (digoxin); MATE1/MATE2-K (metformin); OAT1 (PAH); experiment: in vitro
OCT1/MATE1/MATE2-K = experiment: in vitro; conditions: human, Kidney-Chip (Proximal Tubule), probe TEA
From the text: (§6) Substrates for transporters are termed “victim”.

OCT2/MATE1/MATE2-K = experiment: in vitro; conditions: human, Kidney-Chip (Proximal Tubule), probe Meformin (so in the source); metformin)
From the text: as §6

[8] = test system: proximal tubular epithelium; experiment: Nephrotoxicity testing in Proximal Tubule Kidney-Chip; format: cell-based, human

Compound: CC[C@@]1(O)C(=O)OCc2c1cc1n(c2=O)Cc2cc3c(CN(C)C)c(O)ccc3nc2-1 [Topotecan]
- absorption into system materials (chip material, perfusion manifold material) [1]: Minimal absorption

Compound: CCCCC(=O)N(Cc1ccc(-c2ccccc2-c2nnn[nH]2)cc1)[C@H](C(=O)O)C(C)C [Valsartan]
- absorption into system materials (chip material, perfusion manifold material) [1]: Minimal absorption

Compound: CN1CC(=O)NC1=N [Creatinine, 2-amino-1-methyl-5H-imadazol-4-one]
- recovery [2]: ~100%
- mass balance: compound loss (inlet/outlet) in chip system [3]: No significant creatinine loss
- active transport (B-A versus A-B transport) [3]: significant active transport
- Creatinine loss (BI-BO) ([3]; bottom channel): 2.5 to 4 mM
- creatinine filtration (TO/BO) ([3]; low flow): About 50%

Compound: C[C@]12CC[C@@H]3c4ccc(OS(=O)(=O)O)cc4CC[C@H]3[C@@H]1CCC2=O [Estrone-3-sulfate]
- absorption into system materials (chip material, perfusion manifold material) [1]: Minimal absorption

Compound: inulin
- Inulin leakage into the basal channel (PT Kidney-Chip): no significant inulin leakage

Compound: CC[N+](CC)(CC)CC [TEA, Tetraethylammonium]
- Transwell Efflux Ratio [4]: 1.11+/−0.06
- Kidney-Chip Efflux Ratio ([5]; no inhibitor): 6.95+/−0.60
- efflux ratio ([5]; transport studies comparing different flow rates, conditions tested): > 2

Compound: CN(C)C(=N)N=C(N)N [Metformin]
- efflux from the vascular channel to the luminal channel ([5]; day 8, S1 chip, 30 μL/hr, time-dependent): significant efflux

Compound: C[C@H]1O[C@@H](O[C@H]2[C@@H](O)C[C@H](O[C@H]3[C@@H](O)C[C@H](O[C@H]4CC[C@@]5(C)[C@H](CC[C@@H]6[C@@H]5C[C@@H](O)[C@]5(C)[C@@H](C7=CC(=O)OC7)CC[C@]65O)C4)O[C@@H]3C)O[C@@H]2C)C[C@H](O)[C@@H]1O [Digoxin]
- absorption into system materials (chip material, perfusion manifold material) [1]: Minimal absorption

Compound: Nc1ccc(C(=O)NCC(=O)O)cc1 [PAH, p-aminohippuric acid]
- recovery [2]: ~100%
- mass balance: compound loss (inlet/outlet) in chip system [3]: No significant PAH loss
- active transport (B-A versus A-B transport) [3]: significant active transport
- PAH loss (BI-BO) ([3]; bottom channel): 20 to 40 µg/mL
- PHA transport (TO/BO) ([3]; low flow): about 20%
- predicted clearance value as % of clinical value [6]: 72%
- efflux ratio (in vitro; Kidney-Chip Efflux Ratio): 4.84
- efflux ratio (in vitro; efflux ratio): 2.4 to 2.7
- efflux ratio [7]: 1.37

Compound: CN/C(=N/CCSCc1nc[nH]c1C)NC#N [Cimetidine]
- reduction of PAH secretion ([3]; S1 chip, trend, statistically not significant): 10%
- IC50 (OCT1/MATE1/MATE2-K): 3.16 µM
- IC50 (OCT2/MATE1/MATE2-K): 4.41 µM

Compound: Gentamicin
- LDH in medium effluent ([8]; 10 mM, 48 hours): significant increase
- N-acetyl-beta-(D)-glucosaminidase activity (NAG) in medium effluent ([8]; 10 mM, 48 hours): significant increases
- TUNEL assay ([8]; 10 mM, 48 hours): significant DNA damage
- active caspase-3 in cells lysates ([8]; 10 mM, 48 hours): increase
- microscopic analysis of the proximal tubular epithelium ([8]; 10 mM, 48 hours): structural damage
- reactive oxygen species (ROS) ([8]; 10 mM, 48 hours): significant increases
- Morphology ([8]; dosing at Day 7 for 24 h, Gentamicin 10 mM, Cisplatin 100 μM): Damaged

Compound: Nc1ncnc2c1ncn2CCOCP(=O)(O)O [Adefovir]
- predicted clearance value as % of clinical value [6]: 85%
- efflux ratio (in vitro; Kidney-Chip Efflux Ratio): 2.01

Compound: CCCN(CCC)S(=O)(=O)c1ccc(C(=O)O)cc1 [Probenecid]
- reduction of creatinine secretion ([3]; S1 chip, inhibitor incubated 3 hours, trend, statistically not significant): 10%
